Experimental data reported in patent publication EP0509845A1, “(+) and (-) enantiomers of 5-aliphatic-6-(benzoxazinyl- or benzothiazinyl)-2,3,4,5-tetrahydropyridazin-3-ones” (ORTHO PHARMACEUTICAL CORPORATION, priority 1991, dated 1992).
Read-outs that look alike come from different tables or passages of the source.

Experiments:
[1] = target: T1, canine cardiac cyclic nucleotide phosphodiesterase (PDE) fraction III (Canis lupus familiaris, UniProt A0A8I3NYE0); assay: Cyclic AMP phosphodiesterase assay with fraction III isoenzyme, comparative testing; format: biochemical
T1 construct: The fraction III isoenzyme was pooled and dialyzed; from tissue; host or cells: canine heart, soluble supernatant, DEAE cellulose fraction III (800 mM sodium acetate eluate)
T1 sequence (A0A8I3NYE0 1-1135): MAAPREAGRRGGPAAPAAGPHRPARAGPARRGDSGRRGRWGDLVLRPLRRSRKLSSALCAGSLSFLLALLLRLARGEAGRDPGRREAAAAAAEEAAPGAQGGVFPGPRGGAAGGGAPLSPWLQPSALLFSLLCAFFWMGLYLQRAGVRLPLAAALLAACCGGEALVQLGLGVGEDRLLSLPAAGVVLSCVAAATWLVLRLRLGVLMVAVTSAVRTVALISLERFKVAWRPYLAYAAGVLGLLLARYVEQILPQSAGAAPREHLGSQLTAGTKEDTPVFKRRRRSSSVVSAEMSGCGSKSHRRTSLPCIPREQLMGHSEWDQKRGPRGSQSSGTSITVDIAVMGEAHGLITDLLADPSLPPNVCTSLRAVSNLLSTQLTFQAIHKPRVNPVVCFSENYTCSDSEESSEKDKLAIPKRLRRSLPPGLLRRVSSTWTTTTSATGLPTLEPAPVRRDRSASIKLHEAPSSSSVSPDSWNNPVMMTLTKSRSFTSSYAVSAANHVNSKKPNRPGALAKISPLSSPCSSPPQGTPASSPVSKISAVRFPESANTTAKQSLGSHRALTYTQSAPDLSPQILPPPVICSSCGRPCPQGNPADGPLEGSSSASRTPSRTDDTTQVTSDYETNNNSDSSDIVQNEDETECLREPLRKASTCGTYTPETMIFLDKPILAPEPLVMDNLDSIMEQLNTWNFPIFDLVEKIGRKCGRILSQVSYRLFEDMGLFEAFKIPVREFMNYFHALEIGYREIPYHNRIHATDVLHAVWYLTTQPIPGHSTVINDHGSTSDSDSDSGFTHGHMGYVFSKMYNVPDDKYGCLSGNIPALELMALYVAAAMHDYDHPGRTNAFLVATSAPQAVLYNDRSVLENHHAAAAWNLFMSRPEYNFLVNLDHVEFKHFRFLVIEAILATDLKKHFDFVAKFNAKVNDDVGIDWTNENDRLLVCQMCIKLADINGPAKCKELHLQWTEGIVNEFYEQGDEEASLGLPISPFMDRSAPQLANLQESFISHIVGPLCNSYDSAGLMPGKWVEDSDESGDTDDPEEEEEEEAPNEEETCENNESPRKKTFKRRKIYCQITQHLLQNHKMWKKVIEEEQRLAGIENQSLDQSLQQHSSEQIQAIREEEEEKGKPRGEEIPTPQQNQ

adult mongrel dogs = assay: Comparative racemate and enantiomer hemodynamic testing in pentobarbital anesthetized open-chest dogs; format: in vivo; settings: for CO Percent Change from Control: cardiac output; for CO Percent Change from Control / CF Percent Change from Control / HR Percent Change from Control / LVEDP Percent Change from Control / MAP Percent Change from Control / dP/dtmax Percent Change from Control / RAP Percent Change from Control / SV Percent Change from Control / SW Percent Change from Control / TPR Percent Change from Control: anesthetized open-chest dogs; for CF Percent Change from Control: contractile force; for HR Percent Change from Control: heart rate; for LVEDP Percent Change from Control: left ventricular end diastolic pressure; for MAP Percent Change from Control: mean blood pressure; for dP/dtmax Percent Change from Control: peak rate of rise in left ventricular pressure; for RAP Percent Change from Control: right atrial pressure; for SV Percent Change from Control: stroke volume (CO/HR x 1000); for SW Percent Change from Control: stroke work; for TPR Percent Change from Control: total peripheral resistance
Protocol: Adult mongrel dogs weighing approximately l0-l4 kg were anesthetized with sodium pentobarbital (35 mg/kg, i.p.) and artificially respired. A femoral artery was cannulated to measure mean arterial pressure (MAP) and a femoral vein was cannulated for administering compounds. A Millar microtip pressure transducer was placed in the left ventricle via the left carotid artery to measure left ventricular end diastolic pressure (EDP). pressure pulses triggered a cardiotachometer for determination of heart rate (HR) while the left ventricular pressure waveform was differentiated using a Gould differentiating amplifier to yield dP/dtmax, an index of contractility. A right thoractomy was performed at the fourth intercostal space and the pericardial sac was opened. An externally calibrated Walton-Brodie strain gauge arch was sutured to the right ventricular free wall and stretched to produce a baseline force of approximately l00g. Subsequent changes in right ventricular contractile force (CF) were measured from this baseline. A Carolina electromagnetic flow probe was placed on the ascending aorta to estimate cardiac output (CO). A flexible fluid-filled catheter was inserted into the tip of the right atrium to measure right atrial pressure (RAP). Needle electrodes were placed in the appropriate limbs to record a lead II electrocardiogram (ECG). The following formulas were used to calculate derived parameters: Stroke volume (SV) = CO/HR x l000 Stroke work (SW) = ([…]) x SV Total peripheral resistance (TPR) = (MAP-EDP)/CO
Following surgery and stabilization of hemodynamic parameters, an i.v. infusion of dopamine (l0-l5 µg/kg/min for 3 min) was administered with a Harvard infusion pump to assess responsiveness to positive inotropic stimulation. Baseline hemodynamic values were obtained immediately prior to drug infusion. Responses were continuously monitored on a recorder (Gould 2800) and data collection was facilitated by the use of a Buxco cardiovascular analyzer and data logger.
In the comparative testing a stock solution of each enantiomer (l mg/ml) was prepared fresh daily and diluted before use. Compounds were dissolved in a small volume of dimethylformamide (DMF) and diluted with saline for a final concentration of l5% DMF. Further dilutions were made with a l5% DMF solution.
In the comparative testing each compound was administered in cumulative doses to separate dogs. Data were obtained at the end of each dose. (±) Bemoradan and (+) Bemordan were infused at cumulative doses of 5, l5, 35 and 75 µg/kg, administered with a Harvard infusion pump for 5 minutes each at rates of 0.56, l.l, 2.2, and […], respectively. (-) Bemoradan was given at doses of 5, l5 and 35 µg/kg following the same protocol. The high dose of the (-) isomer was not administered as a means of conserving compound.
Hemodynamic results were expressed as the percent change from pre-drug baseline values and compared using a Dunnett's test with a criterion for significance of p < 0.05. Contractile force ED₄₀ values (i.e., the dose which increased contractile force by 40%) were calculated from dose-response regression lines.

For `CC1CC(=O)NN=C1c1ccc2c(c1)OCC(=O)N2` (single isomer, unassigned; isomer 6) [(-) isomer, 6-(3,4-dihydro-3-oxo-l,4(2H)-benzoxazin-7-yl)-2,3,4,5-tetrahydro-5-methyl-pyridazin-3-one], the “Potency Difference (-vs+), PDE III inhibition (IC50)” value ([1]; (-) isomer versus (+) isomer) was 44 x, the “times more potent than the (+) isomer, inhibition of PDE III” value ([1]; (-) isomer versus (+) isomer) was ~44 times and the “times more potent than the racemate, inhibition of PDE III” value ([1]; (-) isomer versus racemate) was “approximately 4 times”. The IC50 ([1]; Table I summary, canine cardiac PDE fraction III, read-out: PDE III inhibition (IC50)) was 0.18 µM, the IC50 ([1]; canine heart fraction III, 0.1 µM cyclic AMP, read-out: PDE III IC50) was 0.18 µM and the “Potency Difference (-vs+), In vivo inotropic ED40, i.v.” value (adult mongrel dogs; (-) isomer versus (+) isomer) was 7 x. The “In vivo inotropic ED40, i.v.” value (adult mongrel dogs; Table I summary, dose increasing contractile force by 40%, dogs, i.v.) was 5.7 µg/kg, the “CO Percent Change from Control” value (adult mongrel dogs; cumulative i.v. dose 5 µg/kg) was 2.9±0.5% and the “CO Percent Change from Control” value (adult mongrel dogs; cumulative i.v. dose 15 µg/kg) was 0.8±1.9%. For the same compound, the “CO Percent Change from Control” value (adult mongrel dogs; cumulative i.v. dose 35 µg/kg) was -3.4±2.4%, the “CF Percent Change from Control” value (adult mongrel dogs; cumulative i.v. dose 5 µg/kg) was 28.3±4.4% and the “CF Percent Change from Control” value (adult mongrel dogs; cumulative i.v. dose 15 µg/kg) was 119.9±18.8%. For the same compound, the “CF Percent Change from Control” value (adult mongrel dogs; cumulative i.v. dose 35 µg/kg) was 187.2±28.9%, the “CF ED40 (µg/kg) with 95% F.L.” value (adult mongrel dogs; dose causing a 40% increase in contractility above baseline, from dose-response regression lines, i.v. infusion, dogs) was 5.7 (2.9 - 8.3) µg/kg and the “HR Percent Change from Control” value (adult mongrel dogs; cumulative i.v. dose 5 µg/kg) was -3.1±0.5%. The “HR Percent Change from Control” value (adult mongrel dogs; cumulative i.v. dose 15 µg/kg) was 10.5±1.2%, the “HR Percent Change from Control” value (adult mongrel dogs; cumulative i.v. dose 35 µg/kg) was 17.1±3.6% and the “LVEDP Percent Change from Control” value (adult mongrel dogs; cumulative i.v. dose 5 µg/kg) was -10.6±4.4%. For the same compound, the “LVEDP Percent Change from Control” value (adult mongrel dogs; cumulative i.v. dose 15 µg/kg) was -20.7±5.1%, the “LVEDP Percent Change from Control” value (adult mongrel dogs; cumulative i.v. dose 35 µg/kg) was -25.1±8.0% and the “MAP Percent Change from Control” value (adult mongrel dogs; cumulative i.v. dose 5 µg/kg) was -7.4±3.4%. For the same compound, the “MAP Percent Change from Control” value (adult mongrel dogs; cumulative i.v. dose 15 µg/kg) was -12.8±4.5%, the “MAP Percent Change from Control” value (adult mongrel dogs; cumulative i.v. dose 35 µg/kg) was -18.7±4.3% and the “dP/dtmax Percent Change from Control” value (adult mongrel dogs; cumulative i.v. dose 5 µg/kg) was 11.7±5.6%. For the same compound, the “dP/dtmax Percent Change from Control” value (adult mongrel dogs; cumulative i.v. dose 15 µg/kg) was 41.6±12.3%, the “dP/dtmax Percent Change from Control” value (adult mongrel dogs; cumulative i.v. dose 35 µg/kg) was 58.0±14.5% and the “RAP Percent Change from Control” value (adult mongrel dogs; cumulative i.v. dose 5 µg/kg) was 3.8±11.4%. For the same compound, the “RAP Percent Change from Control” value (adult mongrel dogs; cumulative i.v. dose 15 µg/kg) was -0.9±16.4%, the “RAP Percent Change from Control” value (adult mongrel dogs; cumulative i.v. dose 35 µg/kg) was -1.4±16.0% and the “SV Percent Change from Control” value (adult mongrel dogs; cumulative i.v. dose 5 µg/kg) was 0.06±0.9%. For the same compound, the “SV Percent Change from Control” value (adult mongrel dogs; cumulative i.v. dose 15 µg/kg) was -8.4±1.8%, the “SV Percent Change from Control” value (adult mongrel dogs; cumulative i.v. dose 35 µg/kg) was -15.2±4.0% and the “SW Percent Change from Control” value (adult mongrel dogs; cumulative i.v. dose 5 µg/kg) was -7.8±4.2%. The “SW Percent Change from Control” value (adult mongrel dogs; cumulative i.v. dose 15 µg/kg) was -19.8±6.3%, the “SW Percent Change from Control” value (adult mongrel dogs; cumulative i.v. dose 35 µg/kg) was -29.7±7.7% and the “TPR Percent Change from Control” value (adult mongrel dogs; cumulative i.v. dose 5 µg/kg) was -10.2±5.2%. For the same compound, the “TPR Percent Change from Control” value (adult mongrel dogs; cumulative i.v. dose 15 µg/kg) was -12.8±7.5% and the “TPR Percent Change from Control” value (adult mongrel dogs; cumulative i.v. dose 35 µg/kg) was -14.9±5.1%.
